Test results as given in ChEMBL document CHEMBL1123684, “Synthesis and biological properties of 9-(trans-4-hydroxy-2-buten-1-yl)adenine and guanine: open-chain analogues of neplanocin A” (1987).
The source made the active and inactive calls. No cut-off for these calls is given here.

Legend:
L1210 [1] = test: Percent inhibition of growth of murine leukemia L1210 cell culture at 1 mM was determined.; format: functional; conditions: Mus musculus
[2] = system: Vesicular stomatitis virus; test: Antiviral activity against vesicular stomatis virus (VSV); Inactive; format: functional, organism-based
Human alphaherpesvirus 2 = test: Antiviral activity against herpes simplex virus 2 (HSV 2); Inactive; format: functional, organism-based
Human alphaherpesvirus 1 = test: Antiviral activity against herpes simplex virus-1 (HSV 1); Inactive; format: functional, organism-based
L1210 [3] = test: Apparent inhibition of incorporation of labeled thymidine into DNA in murine leukemia L1210 cell;No inhibition; format: functional, cell-based; conditions: Mus musculus

SMILES | inhibition at 1000 µM (L1210 [1]) | Activity [2] | Activity (Human alphaherpesvirus 2) | Activity (Human alphaherpesvirus 1) | Activity (L1210 [3])
Nc1nc(O)c2ncn([C@@H]3C=C(CO)[C@@H](O)[C@H]3O)c2n1 | 50% | inactive | inactive | inactive | –
Nc1ccn([C@@H]2O[C@H](CO)[C@@H](O)[C@@H]2O)c(=O)n1 | – | – | – | – | inactive
Nc1ncnc2c1ncn2[C@@H]1C=C(CO)[C@@H](O)[C@H]1O [NEOPLANOCIN A] | 50% | inactive | inactive | inactive | –
